In publication PMC11470524, “A venom peptide-induced NaV channel modulation mechanism involving the interplay between fixed channel charges and ionic gradients” (The Journal of Biological Chemistry, 2024):
Where two headings read alike, the source gives them in different places. Where no end group is shown, it is not given here.

Tests used:
NaV channels = conditions: cited from earlier work
human NaV1.7 channel [1] = biological target: T1, human NaV1.7 channel (Homo sapiens, UniProt Q15858); assay: Whole-cell current-voltage (I-V) relationship, NaV1.7, standard solution; assay type: cell-based
T1 sequence (Q15858 whole entry): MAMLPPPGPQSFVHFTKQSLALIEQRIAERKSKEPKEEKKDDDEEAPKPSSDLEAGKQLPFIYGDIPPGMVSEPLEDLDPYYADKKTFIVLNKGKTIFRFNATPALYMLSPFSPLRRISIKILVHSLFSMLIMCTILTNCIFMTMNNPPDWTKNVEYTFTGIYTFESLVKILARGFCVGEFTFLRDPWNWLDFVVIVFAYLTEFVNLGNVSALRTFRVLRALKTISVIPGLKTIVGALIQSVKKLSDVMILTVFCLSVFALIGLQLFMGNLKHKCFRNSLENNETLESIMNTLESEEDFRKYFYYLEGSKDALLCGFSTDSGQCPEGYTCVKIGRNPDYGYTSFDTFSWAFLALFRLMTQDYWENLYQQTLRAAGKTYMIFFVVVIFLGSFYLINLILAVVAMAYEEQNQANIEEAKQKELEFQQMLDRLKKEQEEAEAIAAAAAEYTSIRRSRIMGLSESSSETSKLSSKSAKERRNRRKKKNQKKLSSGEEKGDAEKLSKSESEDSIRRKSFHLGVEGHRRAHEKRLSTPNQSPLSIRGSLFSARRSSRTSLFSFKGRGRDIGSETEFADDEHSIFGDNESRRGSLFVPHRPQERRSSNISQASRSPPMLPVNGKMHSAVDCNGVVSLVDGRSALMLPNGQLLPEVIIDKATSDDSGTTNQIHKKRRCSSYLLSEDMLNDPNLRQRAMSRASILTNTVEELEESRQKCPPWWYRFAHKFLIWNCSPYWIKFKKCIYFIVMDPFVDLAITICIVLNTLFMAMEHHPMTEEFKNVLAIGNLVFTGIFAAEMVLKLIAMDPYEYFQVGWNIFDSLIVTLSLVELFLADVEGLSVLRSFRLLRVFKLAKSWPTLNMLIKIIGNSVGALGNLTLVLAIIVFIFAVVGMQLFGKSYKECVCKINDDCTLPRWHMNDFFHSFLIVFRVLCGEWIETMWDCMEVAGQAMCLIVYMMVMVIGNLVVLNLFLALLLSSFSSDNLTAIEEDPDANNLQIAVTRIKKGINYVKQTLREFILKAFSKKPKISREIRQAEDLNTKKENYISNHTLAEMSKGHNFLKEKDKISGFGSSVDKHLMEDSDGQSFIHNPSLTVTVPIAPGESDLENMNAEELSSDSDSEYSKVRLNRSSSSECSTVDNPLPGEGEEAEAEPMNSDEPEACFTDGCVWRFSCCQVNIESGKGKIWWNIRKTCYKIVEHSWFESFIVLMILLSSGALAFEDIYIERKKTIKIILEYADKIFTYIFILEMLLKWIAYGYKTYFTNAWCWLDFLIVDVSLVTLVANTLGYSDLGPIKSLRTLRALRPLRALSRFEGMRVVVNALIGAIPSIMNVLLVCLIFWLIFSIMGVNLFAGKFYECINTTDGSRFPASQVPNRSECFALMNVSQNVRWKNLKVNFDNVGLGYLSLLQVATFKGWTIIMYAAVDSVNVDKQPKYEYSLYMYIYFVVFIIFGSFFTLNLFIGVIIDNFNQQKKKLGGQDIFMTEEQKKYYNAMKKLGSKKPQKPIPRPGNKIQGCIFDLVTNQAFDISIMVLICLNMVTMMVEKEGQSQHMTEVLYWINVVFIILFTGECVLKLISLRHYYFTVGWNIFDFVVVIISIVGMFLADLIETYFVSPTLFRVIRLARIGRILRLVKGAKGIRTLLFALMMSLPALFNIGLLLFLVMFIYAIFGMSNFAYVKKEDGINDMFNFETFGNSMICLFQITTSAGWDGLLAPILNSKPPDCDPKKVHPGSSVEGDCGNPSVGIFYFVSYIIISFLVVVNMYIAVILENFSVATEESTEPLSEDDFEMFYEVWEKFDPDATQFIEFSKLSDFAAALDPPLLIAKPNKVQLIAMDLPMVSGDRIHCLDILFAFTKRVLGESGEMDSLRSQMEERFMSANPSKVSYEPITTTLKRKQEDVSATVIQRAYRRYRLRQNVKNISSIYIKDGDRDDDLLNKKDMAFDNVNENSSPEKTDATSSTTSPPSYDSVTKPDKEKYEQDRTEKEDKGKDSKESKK
Procedure: Data are expressed as mean ± SD.
Whole-cell current-voltage (I-V) recordings were recorded with an EPC 10 USB Heka patch clamp amplifier or an Axon 700B amplifier (Axon Instruments). Currents were filtered (−3 dB, 4-pole Bessel) at 2 kHz and sampled at 50 kHz. […] Leak subtraction was done using a p/4 protocol (4 pulses at a delay of 100 μs). Cell responses were accepted for analysis if the series resistance was ≤ 12 MΩ and was compensated for by ≥ 60%. […] The extracellular solution contained (in mM): 140 NaCl, 5 KCl, 1 MgCl2, 10 Hepes, and 10 D-glucose, adjusted to pH 7.4 with NaOH, whereas the intracellular solution contained (in mM) the following: 140 CsCl, 10 NaCl, 2 10 Hepes, and 5 EGTA adjusted to pH 7.4 with CsOH.
Whole-cell conductance (G) was calculated using the following relation.(1) G=I/(Vm−Vrev) Where, I is the peak current, Vm is the corresponding step voltage and Vrev is the reversal potential (potential where current direction changes).

human NaV1.7 channel [2] = biological target: T1, human NaV1.7 channel; assay: Cumulative concentration-response, persistent (non-inactivating) current I40ms/Ipeak, NaV1.7; assay type: cell-based; conditions: NaV1.7, HEK293, ratio of current at 40 ms to peak current, mean ± SD

COc1ccc(C(=O)O[C@H]2CC[C@@]3(C)[C@@H]4CC[C@H]5[C@]6(O)C[C@H](O)[C@@]7(O)[C@@H](CN8C[C@@H](C)CC[C@H]8[C@@]7(C)O)[C@]6(O)C[C@@]53O[C@]24O)cc1OC [veratridine]
Effect on NaV channels (NaV channels; ref [15], [17], [18]): direct channel activators (agonists)

LAPIFALLLLSGLFSLPALQHYIAANYIN-NH2 [Ta3a[E24A + K25A]]
I-V profile versus control (human NaV1.7 channel [1]; 30 nM analog, n = 4 cells): indistinguishable from control | Leftward shift of V1/2 (human NaV1.7 channel [1]; 1 μM analog, n = 7 cells): −4.5 mV | Leftward shift of Vrev (human NaV1.7 channel [1]; 1 μM analog, n = 7 cells): −28 mV | Reduction in peak current (human NaV1.7 channel [1]; 1 μM analog, n = 7 cells): ~2 fold | Efficacy (maximum response), I40ms/Ipeak (human NaV1.7 channel [2]): 0.35 ± 0.33

ProTx-II: tarantula toxin
Effect on NaV channels (NaV channels; ref [20], [21]): inhibit NaV channel currents by stabilizing S4 helices in the resting state

batrachotoxin
Effect on NaV channels (NaV channels; ref [15], [17], [18]): direct channel activators (agonists) | Effect on ion selectivity (NaV channels; ref [15], [17]): alter ion selectivity

huwentoxin-IV
Effect on NaV channels (NaV channels; ref [20], [21]): inhibit NaV channel currents by stabilizing S4 helices in the resting state
